According to ChEMBL document CHEMBL1909046, “DrugMatrix in vitro pharmacology data”:

Columns and labels:
[1] = biological target: 5-hydroxytryptamine receptor 6 (Homo sapiens, UniProt P50406); format: cell membranes, HeLa, Membrane; details: hela
[2] = biological target: T1, C-C chemokine receptor type 4 (Homo sapiens, UniProt P51679); format: cell membranes, Membrane; details: chem-1
T1 sequence (P51679 whole entry): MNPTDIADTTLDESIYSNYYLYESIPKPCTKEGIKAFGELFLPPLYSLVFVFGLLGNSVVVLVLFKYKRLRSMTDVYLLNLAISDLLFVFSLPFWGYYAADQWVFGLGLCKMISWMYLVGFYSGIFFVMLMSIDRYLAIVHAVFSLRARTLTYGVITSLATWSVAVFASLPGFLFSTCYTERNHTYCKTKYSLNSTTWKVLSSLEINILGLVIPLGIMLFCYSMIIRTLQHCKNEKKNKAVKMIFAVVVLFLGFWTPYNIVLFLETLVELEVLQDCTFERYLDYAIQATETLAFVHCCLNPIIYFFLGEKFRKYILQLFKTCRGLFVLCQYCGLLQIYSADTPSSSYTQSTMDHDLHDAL

[3] = biological target: C-C chemokine receptor type 5 (Homo sapiens, UniProt P51681); format: cell membranes, Membrane; details: hek293
[4] = biological target: T2, C-X-C chemokine receptor type 2 (Homo sapiens, UniProt P25025); format: cell membranes, Membrane; details: cho-k1
T2 sequence (P25025 whole entry): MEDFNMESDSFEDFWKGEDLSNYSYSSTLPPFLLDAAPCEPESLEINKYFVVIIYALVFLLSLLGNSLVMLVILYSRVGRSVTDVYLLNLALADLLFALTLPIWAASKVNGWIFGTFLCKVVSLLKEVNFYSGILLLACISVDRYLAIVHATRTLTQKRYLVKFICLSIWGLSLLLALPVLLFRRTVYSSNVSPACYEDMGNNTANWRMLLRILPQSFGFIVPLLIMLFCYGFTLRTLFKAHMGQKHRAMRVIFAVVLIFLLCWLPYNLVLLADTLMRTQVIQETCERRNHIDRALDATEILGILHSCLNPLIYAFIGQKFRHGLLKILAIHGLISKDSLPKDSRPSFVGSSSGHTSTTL

[5] = biological target: T3, 3-hydroxy-3-methylglutaryl-coenzyme A reductase (Homo sapiens, UniProt P04035); parameters: species or system Escherichia coli;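 also: enzyme inhibition assay of HMG-CoA reductase using radiolabeled [14C]HMG-CoA as substrate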
T3 sequence (P04035 whole entry): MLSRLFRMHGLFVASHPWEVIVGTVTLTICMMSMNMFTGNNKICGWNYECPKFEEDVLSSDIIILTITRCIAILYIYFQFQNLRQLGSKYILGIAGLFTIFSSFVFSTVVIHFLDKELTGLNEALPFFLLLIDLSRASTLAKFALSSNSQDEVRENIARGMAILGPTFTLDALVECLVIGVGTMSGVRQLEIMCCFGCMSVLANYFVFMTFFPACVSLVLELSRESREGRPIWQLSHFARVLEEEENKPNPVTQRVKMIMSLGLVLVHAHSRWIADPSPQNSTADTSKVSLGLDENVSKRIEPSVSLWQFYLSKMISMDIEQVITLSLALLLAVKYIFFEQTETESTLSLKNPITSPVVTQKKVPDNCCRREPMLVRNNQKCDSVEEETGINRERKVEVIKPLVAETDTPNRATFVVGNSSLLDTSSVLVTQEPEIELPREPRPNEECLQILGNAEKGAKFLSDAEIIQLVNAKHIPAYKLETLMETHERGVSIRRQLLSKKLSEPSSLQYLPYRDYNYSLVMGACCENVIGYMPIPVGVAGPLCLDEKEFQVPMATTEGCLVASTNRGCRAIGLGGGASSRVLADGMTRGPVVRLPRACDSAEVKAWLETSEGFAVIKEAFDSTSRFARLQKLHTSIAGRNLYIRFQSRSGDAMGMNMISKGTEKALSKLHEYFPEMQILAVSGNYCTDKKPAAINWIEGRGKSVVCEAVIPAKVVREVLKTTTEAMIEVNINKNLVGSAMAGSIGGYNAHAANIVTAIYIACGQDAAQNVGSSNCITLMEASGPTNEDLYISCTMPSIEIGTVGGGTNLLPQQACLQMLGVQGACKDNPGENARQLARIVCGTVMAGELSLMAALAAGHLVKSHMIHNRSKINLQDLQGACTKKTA

[6] = biological target: T4, Neutrophil elastase (Homo sapiens, UniProt P08246); format: tissue-based;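 also: inhibition of neutrophil elastase enzyme activity, measured with a p-nitroanilide-linked peptide substrate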
T4 sequence (P08246 whole entry): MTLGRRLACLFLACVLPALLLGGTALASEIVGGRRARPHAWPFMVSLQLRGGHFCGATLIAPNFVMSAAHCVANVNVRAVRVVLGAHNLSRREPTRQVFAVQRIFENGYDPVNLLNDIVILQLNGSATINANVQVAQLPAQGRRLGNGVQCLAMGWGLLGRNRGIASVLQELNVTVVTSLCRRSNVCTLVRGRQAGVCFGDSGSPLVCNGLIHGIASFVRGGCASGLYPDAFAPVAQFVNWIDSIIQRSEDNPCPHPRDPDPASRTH

[7] = biological target: T5, Androgen receptor (Rattus norvegicus, UniProt P15207)
T5 sequence (P15207 whole entry): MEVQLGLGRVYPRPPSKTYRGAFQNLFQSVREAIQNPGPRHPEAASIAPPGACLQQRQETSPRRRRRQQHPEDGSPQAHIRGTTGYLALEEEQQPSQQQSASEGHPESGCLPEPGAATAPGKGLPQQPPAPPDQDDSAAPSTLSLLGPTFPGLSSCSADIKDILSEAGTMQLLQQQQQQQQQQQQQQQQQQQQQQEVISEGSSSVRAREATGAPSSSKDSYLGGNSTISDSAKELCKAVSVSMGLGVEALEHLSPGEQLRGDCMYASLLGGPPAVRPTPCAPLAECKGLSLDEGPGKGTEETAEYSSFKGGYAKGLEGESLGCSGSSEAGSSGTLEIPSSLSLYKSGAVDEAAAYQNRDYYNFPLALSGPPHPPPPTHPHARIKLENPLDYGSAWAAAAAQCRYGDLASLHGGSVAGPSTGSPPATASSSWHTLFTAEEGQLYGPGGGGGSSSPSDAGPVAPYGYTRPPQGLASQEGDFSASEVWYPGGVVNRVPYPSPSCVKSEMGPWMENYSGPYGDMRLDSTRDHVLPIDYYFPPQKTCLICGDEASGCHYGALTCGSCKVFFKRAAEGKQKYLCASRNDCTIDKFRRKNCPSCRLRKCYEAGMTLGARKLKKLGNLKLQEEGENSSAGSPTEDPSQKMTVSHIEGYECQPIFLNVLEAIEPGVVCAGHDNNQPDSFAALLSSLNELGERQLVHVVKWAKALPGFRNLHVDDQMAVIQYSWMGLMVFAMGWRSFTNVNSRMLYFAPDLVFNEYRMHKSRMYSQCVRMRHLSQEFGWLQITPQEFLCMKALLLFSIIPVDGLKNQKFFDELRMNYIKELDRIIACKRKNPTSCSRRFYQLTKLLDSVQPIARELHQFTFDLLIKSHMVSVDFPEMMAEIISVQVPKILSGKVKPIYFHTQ
Also: in other assays of this panel Not Active means under 50% inhibition at 10 µM.

Sequence of 5-hydroxytryptamine receptor 6 (P50406 whole entry): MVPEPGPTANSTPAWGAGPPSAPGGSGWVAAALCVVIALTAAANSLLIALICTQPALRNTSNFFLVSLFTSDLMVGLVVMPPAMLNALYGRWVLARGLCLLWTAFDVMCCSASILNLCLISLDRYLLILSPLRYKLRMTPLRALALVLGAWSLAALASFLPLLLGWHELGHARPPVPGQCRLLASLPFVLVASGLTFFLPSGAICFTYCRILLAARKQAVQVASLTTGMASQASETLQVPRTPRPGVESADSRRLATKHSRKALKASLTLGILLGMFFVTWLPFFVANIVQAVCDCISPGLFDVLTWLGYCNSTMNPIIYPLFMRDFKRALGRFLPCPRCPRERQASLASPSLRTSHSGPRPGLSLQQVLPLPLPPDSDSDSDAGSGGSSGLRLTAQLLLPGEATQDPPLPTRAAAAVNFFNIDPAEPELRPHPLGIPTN
Sequence of C-C chemokine receptor type 5 (P51681 whole entry): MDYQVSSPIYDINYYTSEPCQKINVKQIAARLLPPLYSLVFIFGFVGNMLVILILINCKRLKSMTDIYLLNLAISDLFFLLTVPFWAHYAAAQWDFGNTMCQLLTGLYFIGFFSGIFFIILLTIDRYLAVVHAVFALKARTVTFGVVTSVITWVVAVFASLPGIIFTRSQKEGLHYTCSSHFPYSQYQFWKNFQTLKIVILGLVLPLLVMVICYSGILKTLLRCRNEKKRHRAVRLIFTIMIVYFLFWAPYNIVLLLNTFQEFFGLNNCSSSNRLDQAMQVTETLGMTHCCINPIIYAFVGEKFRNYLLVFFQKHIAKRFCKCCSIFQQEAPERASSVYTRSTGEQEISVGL

CC(C)NCC(O)COc1cccc2[nH]ccc12 (stereo not drawn) [PINDOLOL]
Not Active: IC50 [1] | IC50 [2] | IC50 [3] | IC50 [4] | IC50 [5] | IC50 [6] | IC50 [7]

CCCN(CCC)S(=O)(=O)c1ccc(C(=O)O)cc1 [PROBENECID]
Not Active: IC50 [1] | IC50 [2] | IC50 [3] | IC50 [4] | IC50 [5] | IC50 [6] | IC50 [7]

CC(C)c1cccc(C(C)C)c1O [PROPOFOL]
Not Active: IC50 [1] | IC50 [2] | IC50 [3] | IC50 [4] | IC50 [5] | IC50 [6] | IC50 [7]

C[C@@H]1O[C@@H](O[C@@H]2C=C3CC[C@@H]4[C@H](CC[C@]5(C)[C@@H](c6ccc(=O)oc6)CC[C@]45O)[C@@]3(C)CC2)[C@H](O)[C@H](O)[C@H]1O [PROSCILLARIDIN]
Not Active: IC50 [1] | IC50 [2] | IC50 [3] | IC50 [4] | IC50 [5] | IC50 [6] | IC50 [7]

AURANOFIN
Not Active: IC50 [1] | Ki [1] | IC50 [2] | Ki [2] | IC50 [3] | Ki [3] | IC50 [4] | Ki [4] | IC50 [5] | Ki [5] | IC50 [6] | Ki [6] | IC50 [7] | Ki [7]

GADOPENTETATE DIMEGLUMINE
Not Active: IC50 [1] | Ki [1] | IC50 [2] | Ki [2] | IC50 [3] | Ki [3] | IC50 [4] | Ki [4] | IC50 [5] | Ki [5] | IC50 [6] | Ki [6] | IC50 [7] | Ki [7]

GENTAMICIN
Not Active: IC50 [1] | Ki [1] | IC50 [2] | Ki [2] | IC50 [3] | Ki [3] | IC50 [4] | Ki [4] | IC50 [5] | Ki [5] | IC50 [6] | Ki [6] | IC50 [7] | Ki [7]

GRAMICIDIN
Not Active: IC50 [1] | Ki [1] | IC50 [2] | Ki [2] | IC50 [3] | Ki [3] | IC50 [4] | Ki [4] | IC50 [5] | Ki [5] | IC50 [6] | Ki [6] | IC50 [7] | Ki [7]

NYSTATIN
Not Active: IC50 [1] | Ki [1] | IC50 [2] | Ki [2] | IC50 [3] | Ki [3] | IC50 [4] | Ki [4] | IC50 [5] | Ki [5] | IC50 [6] | Ki [6] | IC50 [7] | Ki [7]
